Results as given in ChEMBL document CHEMBL3792317, “Novel tetrazoloquinoline-rhodanine conjugates: Highly efficient synthesis and biological evaluation” (Bioorg Med Chem Lett, 2016).
In brackets after ≈: the same amount, converted by molar mass.

Experiments:
Escherichia coli = test: Antibacterial activity against Escherichia coli after 18 hrs by broth dilution method; format: functional
Pseudomonas fluorescens = test: Antibacterial activity against Pseudomonas fluorescens after 18 hrs by broth dilution method; format: functional
Staphylococcus aureus = test: Antibacterial activity against Staphylococcus aureus after 18 hrs by broth dilution method; format: functional
Bacillus subtilis = test: Antibacterial activity against Bacillus subtilis after 18 hrs by broth dilution method; format: functional
[1] = (§1) Cytotoxicity against human HeLa cells after 48 hrs by MTT assay; format: cell-based; conditions: HeLa cells
HeLa = test: as §1; format: cell-based; conditions: hela, 48 h
[2] = Cytotoxicity against human PANC1 cells after 48 hrs by MTT assay; format: cell-based, PANC-1; conditions: for GI50 at 48 h: PANC1 cells; for GI90: panc-1, 48 h
[3] = (§2) Cytotoxicity against human A549 cells after 48 hrs by MTT assay; format: cell-based; conditions: A549 cells
A549 = test: as §2; format: cell-based; conditions: a549, 48 h
[4] = Cytotoxicity against human THP1 cells after 48 hrs by MTT assay; format: cell-based, THP-1; conditions: for GI50 at 48 h: THP1 cells; for GI90: thp-1, 48 h
[5] = system: Mycobacterium tuberculosis; test: Antitubercular activity against Mycobacterium tuberculosis H37Ra ATCC 25177 incubated for 40 mins by XTT Reduction Menadione Assay; format: functional; conditions: H37Ra ATCC 25177, 40 min
[6] = Antitubercular activity against Mycobacterium bovis BCG ATCC 35743 incubated for 40 mins by XTT Reduction Menadione Assay; format: functional, Mycobacterium bovis BCG str. ATCC 35743; conditions: Mycobacterium tuberculosis variant bovis BCG, ATCC 35743, 40 min
Candida albicans = test: Antifungal activity against Candida albicans NCIM 3471 after 48 hrs by agar cup plate method; format: functional; conditions: NCIM 3471, 48 h
Fusarium oxysporum = test: Antifungal activity against Fusarium oxysporum NCIM 1332 after 48 hrs by agar cup plate method; format: functional; conditions: NCIM 1332, 48 h
Aspergillus flavus = test: Antifungal activity against Aspergillus flavus NCIM 539 after 48 hrs by agar cup plate method; format: functional; conditions: NCIM 539, 48 h
Aspergillus niger = test: Antifungal activity against Aspergillus niger NCIM 1196 after 48 hrs by agar cup plate method; format: functional; conditions: NCIM 1196, 48 h
Cryptococcus neoformans = test: Antifungal activity against Cryptococcus neoformans NCIM 576 after 48 hrs by agar cup plate method; format: functional; conditions: NCIM 576, 48 h
[7] = system: Mycobacterium tuberculosis; test: Antitubercular activity against Mycobacterium tuberculosis H37Ra ATCC 25177 at 30 ug/ml incubated for 40 mins by XTT Reduction Menadione Assay; format: functional; conditions: H37Ra ATCC 25177, 40 min, read-out: GI
[8] = system: Mycobacterium tuberculosis; test: Antitubercular activity against Mycobacterium tuberculosis H37Ra ATCC 25177 at 10 ug/ml incubated for 40 mins by XTT Reduction Menadione Assay; format: functional; conditions: H37Ra ATCC 25177, 40 min, read-out: GI
[9] = system: Mycobacterium tuberculosis; test: Antitubercular activity against Mycobacterium tuberculosis H37Ra ATCC 25177 at 3 ug/ml incubated for 40 mins by XTT Reduction Menadione Assay; format: functional; conditions: H37Ra ATCC 25177, 40 min, read-out: GI
[10] = system: Mycobacterium bovis BCG str. ATCC 35743; test: Antitubercular activity against dormant Mycobacterium bovis BCG ATCC 35743 at 30 ug/ml incubated for 40 mins by XTT Reduction Menadione Assay; format: functional
[11] = system: Mycobacterium bovis BCG str. ATCC 35743; test: Antitubercular activity against dormant Mycobacterium bovis BCG ATCC 35743 at 10 ug/ml incubated for 40 mins by XTT Reduction Menadione Assay; format: functional
[12] = system: Mycobacterium bovis BCG str. ATCC 35743; test: Antitubercular activity against dormant Mycobacterium bovis BCG ATCC 35743 at 3 ug/ml incubated for 40 mins by XTT Reduction Menadione Assay; format: functional
[13] = system: Mycobacterium tuberculosis; test: Antitubercular activity against dormant Mycobacterium tuberculosis H37Ra ATCC 25177 incubated for 40 mins by XTT Reduction Menadione Assay; format: functional; conditions: H37Ra ATCC 25177, 40 min
[14] = system: Mycobacterium tuberculosis; test: Antitubercular activity against active Mycobacterium tuberculosis H37Ra ATCC 25177 incubated for 40 mins by XTT Reduction Menadione Assay; format: functional; conditions: H37Ra ATCC 25177, 40 min

| Structure (SMILES) | MIC (Escherichia coli) | MIC (Pseudomonas fluorescens) | MIC (Staphylococcus aureus) | MIC (Bacillus subtilis) | GI50 at 48 h [1] | GI90 (HeLa) | GI50 at 48 h [2] | MIC [5] | MIC [6] | MIC (Candida albicans) | MIC (Fusarium oxysporum) | MIC (Aspergillus flavus) | MIC (Aspergillus niger) | MIC (Cryptococcus neoformans) | inhibition of growth at 30 µg/mL [7] | inhibition of growth at 10 µg/mL [8] | inhibition of growth at 3 µg/mL [9] | growth inhibition (GI) [10] | growth inhibition (GI) [11] | growth inhibition (GI) [12] | other results |
| --- | --- | --- | --- | --- | --- | --- | --- | --- | --- | --- | --- | --- | --- | --- | --- | --- | --- | --- | --- | --- | --- |
| CC1(C)S[C@@H]2[C@H](NC(=O)[C@H](N)c3ccccc3)C(=O)N2[C@H]1C(=O)O [AMPICILLIN] | 1.46 µg/mL (≈ 4.18 µM) | 4.36 µg/mL (≈ 12.5 µM) | 1 µg/mL (≈ 2.86 µM) | 10.3 µg/mL (≈ 29.5 µM) |  |  |  |  |  |  |  |  |  |  |  |  |  |  |  |  |  |
| CC(=O)O[C@H]1C(=O)[C@@]2(C)[C@H]([C@H](OC(=O)c3ccccc3)[C@]3(O)C[C@H](OC(=O)[C@H](O)[C@@H](NC(=O)c4ccccc4)c4ccccc4)C(C)=C1C3(C)C)[C@]1(OC(C)=O)CO[C@@H]1C[C@@H]2O [PACLITAXEL] |  |  |  |  | 0.0048 µg/mL (≈ 0.00562 µM) | 0.075 µg/mL (≈ 0.0878 µM) | 0.128 µg/mL (≈ 0.15 µM) |  |  |  |  |  |  |  |  |  |  |  |  |  | GI90 [2]: 5.715 µg/mL (≈ 6.69 µM); GI50 at 48 h [3]: < 0.004 µg/mL; GI90 (A549): 0.038 µg/mL (≈ 0.0445 µM); GI50 at 48 h [4]: 0.137 µg/mL (≈ 0.161 µM); GI90 [4]: 5.814 µg/mL (≈ 6.81 µM) |
| Cc1cccc2cc(/C=C3\SC(=S)N(CC(=O)O)C3=O)c3nnnn3c12 | 149 µg/mL (≈ 387 µM) | 162 µg/mL (≈ 420 µM) | 106 µg/mL (≈ 274 µM) | 135 µg/mL (≈ 351 µM) |  |  |  | 93.2 µg/mL (≈ 242 µM) | 86 µg/mL (≈ 223 µM) | 25 µg/mL (≈ 64.9 µM) | 50 µg/mL (≈ 130 µM) | 50 µg/mL (≈ 130 µM) | 100 µg/mL (≈ 259 µM) | 125 µg/mL (≈ 324 µM) | 28.2% | 36.8% | 44.5% | -58.8% | -46.2% | -41.4% |  |
| COc1ccc2c(c1)cc(/C=C1\SC(=S)N(CC(=O)O)C1=O)c1nnnn12 |  |  |  |  |  |  |  | > 250 µg/mL | > 250 µg/mL | 50 µg/mL (≈ 125 µM) | 100 µg/mL (≈ 249 µM) | 150 µg/mL (≈ 374 µM) | 50 µg/mL (≈ 125 µM) | 150 µg/mL (≈ 374 µM) | 38% | 0.62% | 7.3% | 49.8% | 32.1% | -9.36% |  |
| Cc1cccc2cc(/C=C3\SC(=S)NC3=O)c3nnnn3c12 | 173 µg/mL (≈ 529 µM) | 148 µg/mL (≈ 451 µM) | 127 µg/mL (≈ 388 µM) | 88.8 µg/mL (≈ 271 µM) | > 100 µg/mL | > 100 µg/mL | > 100 µg/mL | 148 µg/mL (≈ 453 µM) | > 250 µg/mL | 25 µg/mL (≈ 76.4 µM) | 100 µg/mL (≈ 305 µM) | 50 µg/mL (≈ 153 µM) | 25 µg/mL (≈ 76.4 µM) | 75 µg/mL (≈ 229 µM) | 40.3% | 16.7% | -9.62% | 82.4% | 63.3% | 64% | IC90 [13]: 148 µg/mL (≈ 453 µM); IC90 [14]: > 250 µg/mL; GI90 [2]: > 100 µg/mL; GI50 at 48 h [3]: > 100 µg/mL; GI90 (A549): > 100 µg/mL; GI50 at 48 h [4]: > 100 µg/mL; GI90 [4]: > 100 µg/mL |
| COc1ccc2cc(/C=C3\SC(=S)N(CCC(=O)O)C3=O)c3nnnn3c2c1 |  |  |  |  |  |  |  | > 250 µg/mL | > 250 µg/mL | 100 µg/mL (≈ 241 µM) | 150 µg/mL (≈ 361 µM) | 125 µg/mL (≈ 301 µM) | 50 µg/mL (≈ 120 µM) | 150 µg/mL (≈ 361 µM) | 12.5% | 21.7% | 0.02% | 19% | 20.5% | 18.8% |  |
| Cc1ccc2c(c1)cc(/C=C1\SC(=S)NC1=O)c1nnnn12 | 167 µg/mL (≈ 511 µM) | 223 µg/mL (≈ 682 µM) | 159 µg/mL (≈ 486 µM) | 174 µg/mL (≈ 532 µM) | > 100 µg/mL | > 100 µg/mL | 42 µg/mL (≈ 128 µM) | > 250 µg/mL | > 250 µg/mL | 150 µg/mL (≈ 458 µM) | 25 µg/mL (≈ 76.4 µM) | 100 µg/mL (≈ 305 µM) | 25 µg/mL (≈ 76.4 µM) | 25 µg/mL (≈ 76.4 µM) | 10.8% | 23.7% | 21.9% | -32.7% | -28% | 8.79% | IC90 [13]: > 250 µg/mL; IC90 [14]: > 250 µg/mL; GI90 [2]: > 100 µg/mL; GI50 at 48 h [3]: 89.2 µg/mL (≈ 273 µM); GI90 (A549): 63.3 µg/mL (≈ 193 µM); GI50 at 48 h [4]: 63.3 µg/mL (≈ 193 µM); GI90 [4]: 63.3 µg/mL (≈ 193 µM) |
